Measurements as given in ChEMBL document CHEMBL1201861, “Genomics of Drug Sensitity in Cancer screening data, Wellcome Trust Sanger Institute”.

Key:
Experiment in all cases: cells
CaR-1 = format: functional, cell-based, Homo sapiens; settings: Homo sapiens, CaR-1;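 note: growth inhibition of human CaR-1 cancer cells, read out with a cell viability assay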
Description: SANGER: Inhibition of human CaR-1 cell growth in a cell viability assay.

Calu-3 = format: functional, cell-based, Homo sapiens; settings: Homo sapiens, Calu-3;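 note: growth inhibition of human Calu-3 cells, determined with a cell viability assay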
Description: SANGER: Inhibition of human Calu-3 cell growth in a cell viability assay.

ChaGo-K-1 = format: functional, cell-based; settings: Homo sapiens;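 note: growth inhibition of ChaGo-K-1 cells, read out with a cell viability assay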
Description: SANGER: Inhibition of human ChaGo-K-1 cell growth in a cell viability assay.

DOHH-2 = format: functional, cell-based; settings: Homo sapiens;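 note: growth inhibition of human DOHH-2 cells, read out with a cell viability assay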
Description: SANGER: Inhibition of human DOHH-2 cell growth in a cell viability assay.

ES3 = format: functional, cell-based, Homo sapiens; settings: Homo sapiens, ES3;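 note: growth inhibition of ES3 cells, read out with a cell viability assay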
Description: SANGER: Inhibition of human ES3 cell growth in a cell viability assay.

GP5d = format: functional, cell-based, Homo sapiens; settings: Homo sapiens, GP5d;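 note: growth inhibition of human GP5d cells, read out with a cell viability assay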
Description: SANGER: Inhibition of human GP5d cell growth in a cell viability assay.

H4 = format: functional, cell-based; settings: Homo sapiens
Description: SANGER: Inhibition of human H4 cell growth in a cell viability assay.

HCC1419 = format: functional, cell-based, Homo sapiens; settings: Homo sapiens, HCC1419;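 note: growth inhibition of human HCC1419 cells, read out as cell viability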
Description: SANGER: Inhibition of human HCC1419 cell growth in a cell viability assay.

HCC1569 = format: functional, cell-based, Homo sapiens; settings: Homo sapiens, HCC1569;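 note: growth inhibition of human HCC1569 cells, read out with a cell viability assay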
Description: SANGER: Inhibition of human HCC1569 cell growth in a cell viability assay.

HCC1806 = format: functional, cell-based, Homo sapiens; settings: Homo sapiens, HCC1806;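 note: growth inhibition of the cancer cell line, determined with a cell viability assay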
Description: SANGER: Inhibition of human HCC1806 cell growth in a cell viability assay.

HL-60 = format: functional, cell-based; settings: Homo sapiens;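 note: growth inhibition of human HL-60 cells, read out with a cell viability assay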
Description: SANGER: Inhibition of human HL-60 cell growth in a cell viability assay.

HT1197 = format: functional, cell-based, Homo sapiens, HT-1197; settings: Homo sapiens, HT1197
Description: SANGER: Inhibition of human HT-1197 cell growth in a cell viability assay.

KNS-42 = format: functional, cell-based, Homo sapiens; settings: Homo sapiens, KNS-42;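 note: growth inhibition of KNS-42 cells, read out with a cell viability assay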
Description: SANGER: Inhibition of human KNS-42 cell growth in a cell viability assay.

KP-4 = format: functional, cell-based, Homo sapiens; settings: Homo sapiens, KP-4; read-out: IC50;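 note: human KP-4 cells, with growth inhibition read out through a cell viability assay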
Description: SANGER: Inhibition of human KP-4 cell growth in a cell viability assay.

KP-N-YN = format: functional, cell-based; settings: Homo sapiens;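 note: growth inhibition of KP-N-YN cells, read out with a cell viability assay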
Description: SANGER: Inhibition of human KP-N-YN cell growth in a cell viability assay.

KYSE-450 = format: functional, cell-based; settings: Homo sapiens;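 note: cell growth inhibition measured by a viability assay in human KYSE-450 cells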
Description: SANGER: Inhibition of human KYSE-450 cell growth in a cell viability assay.

LCLC-103H cell line = format: functional, cell-based, Homo sapiens; settings: Homo sapiens, LCLC-103H
Description: SANGER: Inhibition of human LCLC-103H cell growth in a cell viability assay.

LK-2 = format: functional, cell-based, Homo sapiens; settings: Homo sapiens, LK-2;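 note: growth inhibition of LK-2 cells, read out with a viability assay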
Description: SANGER: Inhibition of human LK-2 cell growth in a cell viability assay.

LS-1034 = format: functional, cell-based, Homo sapiens; settings: Homo sapiens, LS-1034
Description: SANGER: Inhibition of human LS-1034 cell growth in a cell viability assay.

MHH-ES-1 = format: functional, cell-based, Homo sapiens; settings: Homo sapiens, MHH-ES-1;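 note: cell growth inhibition measured by a cell viability assay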
Description: SANGER: Inhibition of human MHH-ES-1 cell growth in a cell viability assay.

MeWo = format: functional, cell-based, Homo sapiens; settings: Homo sapiens, MeWo;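 note: growth inhibition of MeWo cells, determined by a cell viability readout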
Description: SANGER: Inhibition of human Mewo cell growth in a cell viability assay.

NB10 = format: functional, cell-based, Homo sapiens; settings: Homo sapiens, NB10;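 note: growth inhibition of NB10 cells, read out by a cell viability assay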
Description: SANGER: Inhibition of human NB10 cell growth in a cell viability assay.

NCI-H1755 = format: functional, cell-based, Homo sapiens; settings: Homo sapiens, NCI-H1755;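 note: cell viability readout used to measure growth inhibition of NCI-H1755 cells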
Description: SANGER: Inhibition of human NCI-H1755 cell growth in a cell viability assay.

NCI-H1838 = format: functional, cell-based, Homo sapiens; settings: Homo sapiens, NCI-H1838;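 note: growth inhibition of NCI-H1838 cells, determined with a cell viability readout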
Description: SANGER: Inhibition of human NCI-H1838 cell growth in a cell viability assay.

NCI-H520 = format: functional, cell-based, Homo sapiens; settings: Homo sapiens, NCI-H520;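 note: growth inhibition of NCI-H520 cells, measured by a cell viability assay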
Description: SANGER: Inhibition of human NCI-H520 cell growth in a cell viability assay.

OMC-1 = format: functional, cell-based, Homo sapiens; settings: Homo sapiens, OMC-1;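 note: growth inhibition of the OMC-1 cell line, measured by a cell viability assay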
Description: SANGER: Inhibition of human OMC-1 cell growth in a cell viability assay.

OVCAR-4 = format: functional, cell-based, Homo sapiens; settings: Homo sapiens, OVCAR-4;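 note: growth inhibition of human OVCAR-4 cells, measured with a cell viability assay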
Description: SANGER: Inhibition of human OVCAR-4 cell growth in a cell viability assay.

PC-14 = format: functional, cell-based, Homo sapiens; settings: Homo sapiens, PC-14;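 note: cell viability assay measuring inhibition of PC-14 cell growth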
Description: SANGER: Inhibition of human PC-14 cell growth in a cell viability assay.

Ramos-2G6-4C10 = format: functional, cell-based; settings: Homo sapiens;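 note: growth inhibition of the cell line, measured by a cell viability read-out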
Description: SANGER: Inhibition of human Ramos-2G6-4C10 cell growth in a cell viability assay.

SCC-4 = format: functional, cell-based, Homo sapiens; settings: Homo sapiens, SCC-4;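 note: growth inhibition of human SCC-4 cells, read out as cell viability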
Description: SANGER: Inhibition of human SCC-4 cell growth in a cell viability assay.

SCC-9 = format: functional, cell-based, Homo sapiens; settings: Homo sapiens, SCC-9;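 note: Read-out is a cell viability assay, with values giving inhibition of cell growth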
Description: SANGER: Inhibition of human SCC-9 cell growth in a cell viability assay.

SK-MES-1 = format: functional, cell-based, Homo sapiens; settings: Homo sapiens, SK-MES-1;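 note: growth inhibition of human SK-MES-1 cells, read out with a cell viability assay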
Description: SANGER: Inhibition of human SK-MES-1 cell growth in a cell viability assay.

SK-NEP-1 = format: functional, cell-based; settings: Homo sapiens;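 note: growth inhibition of human SK-NEP-1 cells, read out by a cell viability assay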
Description: SANGER: Inhibition of human SK-NEP-1 cell growth in a cell viability assay.

SKG-IIIa = format: functional, cell-based, Homo sapiens; settings: Homo sapiens, SKG-IIIa;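 note: cell growth inhibition, read out with a cell viability assay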
Description: SANGER: Inhibition of human SKG-IIIa cell growth in a cell viability assay.

SW1710 = format: functional, cell-based, Homo sapiens; settings: Homo sapiens, SW1710;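 note: growth inhibition of SW1710 cells, determined with a cell viability assay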
Description: SANGER: Inhibition of human SW1710 cell growth in a cell viability assay.

SW756 = format: functional, cell-based, Homo sapiens; settings: Homo sapiens, SW756;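 note: growth inhibition of human SW756 cells, read out with a cell viability assay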
Description: SANGER: Inhibition of human SW756 cell growth in a cell viability assay.

T-24 = format: functional, cell-based, Homo sapiens; settings: Homo sapiens, T-24;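 note: growth inhibition of T-24 cells, read out with a cell viability assay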
Description: SANGER: Inhibition of human T-24 cell growth in a cell viability assay.

CWR22R = format: functional, cell-based, Homo sapiens; settings: Homo sapiens, 22Rv1;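 note: growth inhibition of 22Rv1 cells, read out with a cell viability assay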
Description: SANGER: Inhibition of human 22RV1 cell growth in a cell viability assay.

A101D = format: functional, cell-based, Homo sapiens; settings: Homo sapiens, A101D;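 note: growth inhibition of the cell line, measured with a viability assay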
Description: SANGER: Inhibition of human A101D cell growth in a cell viability assay.

A2780 = format: functional, cell-based, Homo sapiens; settings: Homo sapiens, A2780;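 note: growth inhibition of A2780 cells, read out with a cell viability assay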
Description: SANGER: Inhibition of human A2780 cell growth in a cell viability assay.

A-427 = format: functional, cell-based, Homo sapiens; settings: Homo sapiens, A-427;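 note: growth inhibition of human A-427 cells, read out by a cell viability assay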
Description: SANGER: Inhibition of human A427 cell growth in a cell viability assay.

BE-13 = format: functional, cell-based; settings: Homo sapiens;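 note: growth inhibition of human BE-13 cells, measured with a cell viability assay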
Description: SANGER: Inhibition of human BE-13 cell growth in a cell viability assay.

BT-474 = format: functional, cell-based, Homo sapiens; settings: Homo sapiens, BT-474
Description: SANGER: Inhibition of human BT-474 cell growth in a cell viability assay.

BXPC-3 = format: functional, cell-based, Homo sapiens; settings: Homo sapiens, BXPC-3;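 note: growth inhibition of human BxPC-3 cells, read out by a cell viability assay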
Description: SANGER: Inhibition of human BxPC-3 cell growth in a cell viability assay.

C-33-A = format: functional, cell-based, Homo sapiens; settings: Homo sapiens, C-33-A;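 note: cell viability assay measuring growth inhibition of C-33-A cells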
Description: SANGER: Inhibition of human C-33-A cell growth in a cell viability assay.

U-266 = format: functional, cell-based; settings: Homo sapiens
Description: SANGER: Inhibition of human U-266 cell growth in a cell viability assay.

U-251 = format: functional, cell-based, Homo sapiens; settings: Homo sapiens, U-251;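 note: growth inhibition of human U-251 cells, read out through a cell viability assay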
Description: SANGER: Inhibition of human U251 cell growth in a cell viability assay.

UMC-11 = format: functional, cell-based, Homo sapiens; settings: Homo sapiens, UMC-11;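 note: growth inhibition of UMC-11 cells, read out with a cell viability assay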
Description: SANGER: Inhibition of human UMC-11 cell growth in a cell viability assay.

HMV-2 cell line = format: functional, cell-based, Homo sapiens; settings: Homo sapiens, HMV-2;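 note: growth inhibition of HMV-II cells, read out with a cell viability assay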
Description: SANGER: Inhibition of human HMV-II cell growth in a cell viability assay.

HOP-62 = format: functional, cell-based, Homo sapiens; settings: Homo sapiens, HOP-62;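 note: cell growth inhibition determined with a viability assay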
Description: SANGER: Inhibition of human HOP-62 cell growth in a cell viability assay.

SK-UT-1 = format: functional, cell-based, Homo sapiens; settings: Homo sapiens, SK-UT-1;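 note: growth inhibition of SK-UT-1 cells, measured by a cell viability assay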
Description: SANGER: Inhibition of human SK-UT-1 cell growth in a cell viability assay.

Compound: COc1cc(F)c(F)c(Nc2ccc(I)cc2F)c1NS(=O)(=O)C1(CC(O)CO)CC1 (stereo not drawn)
- IC50 (CaR-1): > 5 µM
- IC50 (Calu-3): 4.9 µM
- IC50 (ChaGo-K-1): > 0.005 mM
- IC50 (DOHH-2): > 5 µM
- IC50 (ES3): > 5 µM
- IC50 (GP5d): > 5 µM
- IC50 (H4): 3.35 µM
- IC50 (HCC1419): > 0.005 mM
- IC50 (HCC1569): > 0.005 mM
- IC50 (HCC1806): > 0.005 mM
- IC50 (HL-60): 0.0324 µM
- IC50 (HT1197): > 5 µM
- IC50 (KNS-42): > 5 µM
- IC50 (KP-4): > 0.005 mM
- IC50 (KP-N-YN): > 5 µM
- IC50 (KYSE-450): > 0.005 mM
- IC50 (LCLC-103H cell line): > 5 µM
- IC50 (LK-2): > 0.005 mM
- IC50 (LS-1034): 0.00162 mM
- IC50 (MHH-ES-1): > 5 µM
- IC50 (MeWo): 0.753 µM
- IC50 (NB10): > 5 µM
- IC50 (NCI-H1755): > 0.005 mM
- IC50 (NCI-H1838): > 0.005 mM
- IC50 (NCI-H520): > 5 µM
- IC50 (OMC-1): > 5 µM
- IC50 (OVCAR-4): > 5 µM
- IC50 (PC-14): 4.17 µM
- IC50 (Ramos-2G6-4C10): > 5 µM
- IC50 (SCC-4): 5 µM
- IC50 (SCC-9): > 5 µM
- IC50 (SK-MES-1): 1.35 µM
- IC50 (SK-NEP-1): > 5 µM
- IC50 (SKG-IIIa): > 5 µM
- IC50 (SW1710): 2.02 µM
- IC50 (SW756): 1.23 µM
- IC50 (T-24): > 0.005 mM
- IC50 (CWR22R): > 5 µM
- IC50 (A101D): 0.0512 µM
- IC50 (A2780): > 0.005 mM
- IC50 (A-427): 4.46 µM
- IC50 (BE-13): > 5 µM
- IC50 (BT-474): > 0.005 mM
- IC50 (BXPC-3): 1.6 µM
- IC50 (C-33-A): > 0.005 mM
- IC50 (U-266): > 0.005 mM
- IC50 (U-251): > 5 µM
- IC50 (UMC-11): > 5 µM

Compound: COC(=O)CNC(=O)C(=O)OC
- IC50 (CaR-1): 220 µM
- IC50 (Calu-3): 65.7 µM
- IC50 (ChaGo-K-1): 1.56 mM
- IC50 (DOHH-2): 281 µM
- IC50 (ES3): 701 µM
- IC50 (GP5d): 636 µM
- IC50 (H4): 177 µM
- IC50 (HCC1419): > 4 mM
- IC50 (HCC1569): 1.68 mM
- IC50 (HCC1806): 1.84 mM
- IC50 (HL-60): 157 µM
- IC50 (HMV-2 cell line): > 4 mM
- IC50 (HOP-62): 167 µM
- IC50 (HT1197): 315 µM
- IC50 (KNS-42): 229 µM
- IC50 (KP-4): 1.8 mM
- IC50 (KYSE-450): 2.48 mM
- IC50 (LCLC-103H cell line): 880 µM
- IC50 (LK-2): > 4 mM
- IC50 (LS-1034): 2.57 mM
- IC50 (MHH-ES-1): 115 µM
- IC50 (MeWo): 230 µM
- IC50 (NB10): 524 µM
- IC50 (NCI-H1755): 2.74 mM
- IC50 (NCI-H1838): > 4 mM
- IC50 (NCI-H520): 398 µM
- IC50 (OMC-1): 249 µM
- IC50 (OVCAR-4): 93.8 µM
- IC50 (PC-14): > 4000 µM
- IC50 (Ramos-2G6-4C10): 100 µM
- IC50 (SCC-4): 877 µM
- IC50 (SCC-9): 122 µM
- IC50 (SK-MES-1): 221 µM
- IC50 (SK-NEP-1): 976 µM
- IC50 (SK-UT-1): 1.05 mM
- IC50 (SKG-IIIa): 308 µM
- IC50 (SW1710): 277 µM
- IC50 (SW756): 138 µM
- IC50 (T-24): > 4 mM
- IC50 (CWR22R): 304 µM
- IC50 (A101D): 163 µM
- IC50 (A2780): 2.03 mM
- IC50 (A-427): 642 µM
- IC50 (BE-13): 180 µM
- IC50 (BT-474): > 4 mM
- IC50 (BXPC-3): 639 µM
- IC50 (C-33-A): > 4 mM
- IC50 (U-266): > 4 mM
- IC50 (U-251): 215 µM
- IC50 (UMC-11): 147 µM
